Structures can show the parent of a compound that is named as a salt.

The subject of one test is TNF-α. The test is described as follows: In vitro efficacy in semi-activated LX2 cells, qPCR: TNF-α. In kind it is cell-based. To be noted: Homo sapiens, LX-2, 48 hours, Q-PCR, read-out: TNF-α mRNA inhibition rate.
For the next test, the system named is collagen III. The test is described as follows: Semi-activated LX2 cells, Western blot: collagen III protein. It is filed as cell-based. The settings on record: 50-400 μM, 48 hours, FIG. 1, vs 50 μM aspartic acid. The procedure: 4. Western blotting to detect protein expression level
4.1 Extraction of total cell protein: The cells were taken out, the original culture medium was discarded, 1 to 2 mL of 1×PBS was added, washing was performed twice, digestion was performed with trypsin, the supernatant was discarded, the cells at the bottom of the tube were gently moved by flicking, and then 1 mL of PBS was added again to wash the cells twice; after being centrifuged at 1200 rpm for 5 minutes, the supernatant was completely discarded, the cells at the bottom of the tube was mixed well by flicking. Depending on the amount of cells, 50 to 100 μL of protein lysis buffer containing protease inhibitor and phosphatase inhibitor was added, the cells were mixed thoroughly by pipetting, placed on ice and lysed for 30 minutes, then centrifuged at 12,000 rcf for 15 minutes at 4° C., and the supernatant was pipetted and transferred into a new EP tube to obtain the total cell protein, which could be directly used for subsequent determination of protein concentration or stored at −80° C.
4.2 Determination of protein concentration by BCA method: BCA reagent solution A and solution B were mixed well at a ratio of 50:1 to prepare a working solution; 5 μL of the sample to be tested was taken, added into 95 μL of deionized water, mixed, and diluted 20 times, and 20 μL of the diluted sample to be tested was taken and added to a 96-well plate; after 200 μL of the working solution was added, the 96-well plate was placed in a 37° C. incubator and incubated for 30 min, and then tested on the machine.
4.3 Protein denaturation: 100 μg of each of samples was taken respectively, supplemented with protein lysis buffer to reach the volume of each sample, then added with 4× loading buffer at 1/3 of the total volume and mixed thoroughly, underwent denaturation at 99° C. for 10 min, centrifuged and stored at −80° C. […]
(A western blot detects proteins with antibodies after separation by electrophoresis.)

As a reminder, the inhibition is the relative decrease from the control value, in per cent. As to `COC(=O)[C@@H](N)CC(=O)O` [Compound 4], the inhibition at 50 µM with TNF-α was in the range of 25 to 50%.

For the compound `COC(=O)C[C@H](N)C(=O)O` [Compound 6], the inhibition at 50 µM in the test on TNF-α is 10 to 25%. For the same compound, the “inhibitory effect on collagen III protein expression as compared to ASP” value (shortened to “inhibitory effect … compared to ASP”) in the test on collagen III is on record as “stronger inhibitory effects”.

As for `N[C@@H](CCC(=O)O)C(=O)O` [Compound 47], the inhibition at 50 µM in the test on TNF-α lay in the range of 10 to 25%. Also, in the test on collagen III, the “inhibitory effect … compared to ASP” value is “stronger inhibitory effects”.

On to `COC(=O)C[C@H](N)C(=O)OCOC(=O)[C@@H](N)CC(=O)OC` [Compound 54, 4-dimethyl O′1,01-methylene (2S,2'S)-bis (2-aminosuccinate) hydrochloride], for which, in the test with TNF-α, the inhibition at 50 µM fell in the range of 1 to 10%. The “inhibitory effect … compared to ASP” value in the test on collagen III was “stronger inhibitory effects”.

The values are drawn from US20250025438A1, “Derivative of aspartic acid and use thereof in treatment of metabolic diseases such as hepatic fibrosis and non-alcoholic hepatitis” (SHENZHEN JINGTAI TECHNOLOGY CO., LTD., priority 2021, published 2025).
